In patent US7915448B2, “Substituted sulfonylaminoarylmethyl cyclopropanecarboxamide as VR1 receptor antagonists” (Pfizer Inc., priority 2005, dated 2011):
Structures can show the parent of a compound that is named as a salt.

Key:
[1] = Half-life in Human Liver Microsomes (HLM); settings: pH 7.4; for half-life at 1 μM: human, human liver microsomes (HL101)
Description: Test compounds (1 μM) were incubated with 3.3 mM MgCl2 and 0.78 mg/mL HLM (HL101) in 100 mM potassium phosphate buffer (pH 7.4) at 37° C. on the 96-deep well plate. The reaction mixture was split into two groups, a non-P450 and a P450 group. NADPH was only added to the reaction mixture of the P450 group. An aliquot of samples of P450 group was collected at 0, 10, 30, and 60 min time point, where 0 min time point indicated the time when NADPH was added into the reaction mixture of P450 group. An aliquot of samples of non-P450 group was collected at −10 and 65 min time point. Collected aliquots were extracted with acetonitrile solution containing an internal standard. The precipitated protein was spun down in centrifuge (2000 rpm, 15 min). The compound concentration in supernatant was measured by LC/MS/MS system.
The half-life value was obtained by plotting the natural logarithm of the peak area ratio of compounds/internal standard versus time. The slope of the line of best fit through the points yields the rate of metabolism (k).

human VR1 receptors = biological target: T1, human VR1 receptors (Homo sapiens, UniProt Q8NER1); assay: Human VR1 antagonist assay (Ca2+ imaging); type: cell-based; settings: cells expressing human VR1, fura-2 Ca2+ imaging, FDSS 6000; capsaicin (300 nM) or acid (pH5.8) stimulation, table does not say which
T1 construct: host or cells: cells highly expressing human VR1; cell type not specified
Source text: Human VR1 Antagonist Assay
VR1 antagonistic activity can be determined by the Ca^2+ imaging assay using human VR1 highly expressing cells. The cells that highly express human VR1 receptors are obtainable from several different conventional methods. The one standard method is cloning from human Dorsal Root Ganglion (DRG) or kidney according to the methods such as described in the journal article; Nature, 389, pp 816-824, 1997. Alternatively VR1 receptors highly expressing human keratinocytes are also known and published in the journal article (Biochemical and Biophysical Research Communications, 291, pp 124-129, 2002). […] Further more, the method to up regulate human VR1 gene, which is usually a silent gene or don't produce detectable level of VR1 receptors, is also available to obtain propriety cells. Such genetic modification method was described in detail; Nat. Biotechnol., 19, pp 440-445, 2001.
The cells that express human VR1 receptors were maintained in culture flask at 37° C. in an environment containing 5% CO2 until use in the assay. The intracellular Ca^2+ imaging assay to determine VR1 antagonistic activities were done by following procedures.
The culture medium was removed from the flask and fura-2/AM fluorescent calcium indicator was added to the flask at a concentration of 5 μM in the medium. The flask was placed in CO2 incubator and incubated for 1 hour. Then the cells expressing the human VR1 receptors were detached from the flask follow by washing with phosphate buffer saline, PBS(−) and re-suspended in assay buffer. The 80 μl of aliquot of cell suspension (3.75×10^5 cells/ml) was added to the assay plate and the cells were spun down by centrifuge (950 rpm, 20° C., 3 minutes).
Capsaicin Stimulation Assay:
The capsaicin-induced changes in the intracellular calcium concentration were monitored using FDSS 6000 (Hamamatsu Photonics, Japan), a fluorometric imaging system. The cell suspension in Krebs-Ringer HEPES (KRH) buffer (115 mM NaCl, 5.4 mM KCl, 1 mM MgSO4, 1.8 mM CaCl2, 11 mM D-Glucose, 25 mM HEPES, 0.96 mM Na2HPO4, pH 7.3) were pre-incubated with varying concentrations of the test compounds or KRH buffer (buffer control) for 15 minutes at room temperature under the dark condition. Then capsaicin solution, which gives 300 nM in assay mixture, was automatically added to the assay plate by the FDSS 6000.
The Acid-induced changes in the intracellular calcium concentration were monitored using FDSS 6000 (Hamamatsu Photonics, Japan), a fluorometric imaging system. The cell suspension in resting buffer (HBSS supplemented with 10 mM HEPES, pH 7.4) were pre-incubated with varying concentrations of the test compounds or resting buffer (buffer control) for 15 minutes at room temperature under the dark condition. The cells were automatically added the stimulating solution (HBSS supplemented with MES, final assay buffer pH5.8) by the FDSS 6000.
Determination of Antagonist Activity
The monitoring of the changes in the fluorescence signals (λex=340 nm/380 nm, λem=510-520 nm) was initiated at 1 minute prior to the addition of capsaicin solution or acidic buffer and continued for 5 minute.

T1 sequence (Q8NER1 whole entry): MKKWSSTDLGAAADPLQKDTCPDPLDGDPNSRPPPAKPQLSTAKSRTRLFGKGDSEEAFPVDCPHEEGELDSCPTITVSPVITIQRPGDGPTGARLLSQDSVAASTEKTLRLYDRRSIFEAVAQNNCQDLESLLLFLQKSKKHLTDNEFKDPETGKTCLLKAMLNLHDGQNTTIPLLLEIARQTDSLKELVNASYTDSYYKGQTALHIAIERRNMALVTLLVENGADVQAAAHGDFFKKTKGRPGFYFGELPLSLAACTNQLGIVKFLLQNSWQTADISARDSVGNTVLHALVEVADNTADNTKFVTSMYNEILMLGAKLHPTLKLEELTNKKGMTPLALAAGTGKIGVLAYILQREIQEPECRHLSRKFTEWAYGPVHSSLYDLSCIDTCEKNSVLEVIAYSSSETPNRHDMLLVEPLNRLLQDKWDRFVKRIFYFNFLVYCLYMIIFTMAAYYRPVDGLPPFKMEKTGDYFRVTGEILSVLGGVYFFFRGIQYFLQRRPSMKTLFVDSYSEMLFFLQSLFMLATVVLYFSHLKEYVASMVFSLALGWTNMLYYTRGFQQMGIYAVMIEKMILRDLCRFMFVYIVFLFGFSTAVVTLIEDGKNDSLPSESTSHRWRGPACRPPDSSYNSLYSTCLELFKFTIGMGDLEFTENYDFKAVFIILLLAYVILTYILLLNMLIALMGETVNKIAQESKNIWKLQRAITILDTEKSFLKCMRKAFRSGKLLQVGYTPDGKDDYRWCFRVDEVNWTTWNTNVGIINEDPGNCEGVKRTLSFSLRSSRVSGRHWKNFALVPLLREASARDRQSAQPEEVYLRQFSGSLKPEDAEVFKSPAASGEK

| half-life at 1 μM [1] [min] | IC50 (human VR1 receptors) [nM] | T1/2 ([1]; 1 μM compound, 0.78 mg/mL HLM, 37° C., NADPH) [min] | SMILES |
| --- | --- | --- | --- |
| 19 | 17.9 | – | CCc1cc([C@@H](C)NC(=O)C2CC2(C)c2ccc(OC(F)(F)F)cc2)ccc1NS(C)(=O)=O (mixture of isomers) [Example 29, N-((1R)-1-{3-Ethyl-4-[(methylsulfonyl)amino]phenyl}ethyl)-2-methyl-2-{4-[(trifluoromethyl)oxy]phenyl}cyclopropanecarboxamide] |
| 61 | 12.3 | – | Cc1cc([C@@H](C)NC(=O)C2CC2(C)c2ccc(OC(F)(F)F)cc2)ccc1NS(C)(=O)=O (single isomer, unassigned) [Example 28] |
| 32 | 138 | – | Cc1cc([C@@H](C)NC(=O)C2CC2c2cc(F)c(C(C)(C)C(F)(F)F)c(F)c2)ccc1NS(C)(=O)=O (single isomer, unassigned) [Example 30] |
| 42 | 297 | – | Cc1nc([C@@H](C)NC(=O)C2CC2c2ccc(C(C)(C)C)cc2)ccc1NS(C)(=O)=O (single isomer, unassigned) [Example 55] |
| > 120 | 1250 | – | Cc1nc([C@@H](C)NC(=O)C2CC2c2ccc(C(F)(F)F)cc2)ccc1NS(C)(=O)=O (single isomer, unassigned) [Example 56] |
| 91 | 30.5 | – | Cc1cc([C@@H](C)NC(=O)C2CC2(C)c2ccc(C(F)(F)F)nc2)ccc1NS(C)(=O)=O (single isomer, unassigned) [Example 57] |
| 15.8 | 0.48 | – | Cc1cc([C@@H](C)NC(=O)C2CC2(C)c2cc(F)c(C(C)(C)C(F)(F)F)c(F)c2)ccc1NS(C)(=O)=O (single isomer, unassigned) [Example 71] |
| 52.6 | 8.5 | – | CCc1cc([C@@H](C)NC(=O)C2CC2(C)c2cc(F)c(C(C)(C)C(F)(F)F)c(F)c2)ccc1NS(C)(=O)=O (single isomer, unassigned) [Example 72] |
| 10 | 11.8 | – | CCc1cc([C@@H](C)NC(=O)C2CC2(C)c2ccc(OC(F)(F)F)cc2)ccc1NS(C)(=O)=O (single isomer, unassigned) [Example 75] |
| – | 237 to 455 | – | Oc1cc2c(cc1O)CN(C(=S)NCCc1ccc(Cl)cc1)CCC2 [Capsazepine, reference compound] |
| – | 885 | – | Cc1cc([C@@H](C)NC(=O)C2CC2(C)c2ccc(C(C)(C)O)cc2)ccc1NS(C)(=O)=O (stereo partly drawn) [Example 3, 2-[4-(1-Hydroxy-1-methylethyl)phenyl]-2-methyl-N-((1R)-1-{3-methyl-4-[(methylsulfonyl)amino]phenyl}ethyl)cyclopropanecarboxamide] |
| – | – | 22 | Cc1cc([C@@H](C)NC(=O)C2CC2(C)c2ccc(C(C)(C)C)nc2)ccc1NS(C)(=O)=O (stereo partly drawn) [Example 11, 2-(6-tert-Butylpyridin-3-yl)-2-methyl-N-((1R)-1-{3-methyl-4-[(methylsulfonyl)amino]phenyl}ethyl)cyclopropanecarboxamide monohydrochloride] |
| 25 | – | – | CCc1nc([C@@H](C)NC(=O)C2C[C@]2(C)c2ccc(C(C)(C)C(F)(F)F)cc2)ccc1NS(C)(=O)=O (stereo partly drawn) [Example 35, N-((1R)-1-{6-Ethyl-5-[(methylsulfonyl)amino]pyridin-2-yl}ethyl)-2-methyl-2-[4-(2,2,2-trifluoro-1,1-dimethylethyl)phenyl]cyclopropanecarboxamide] |
| – | 156 | – | CCc1nc([C@@H](C)NC(=O)[C@H]2C[C@]2(C)c2ccc(C(C)(C)C(F)(F)F)cc2)ccc1NS(C)(=O)=O [Example 35, N-((1R)-1-{6-Ethyl-5-[(methylsulfonyl)amino]pyridin-2-yl}ethyl)-2-methyl-2-[4-(2,2,2-trifluoro-1,1-dimethylethyl)phenyl]cyclopropanecarboxamide] |
| 23 | – | – | C[C@@H](NC(=O)C1C[C@@H]1c1ccc(C(C)(C)C)c(F)c1)c1ccc(NS(C)(=O)=O)c(CO)c1 (stereo partly drawn) [Example 36, 2-[4-tert-Butyl-3-fluorophenyl]-N-((1R)-1-{3-(hydroxymethyl)-4-[(methylsulfonyl)amino]phenyl}ethyl)cyclopropanecarboxamide] |
| – | 19 | – | C[C@@H](NC(=O)[C@H]1C[C@@H]1c1ccc(C(C)(C)C)c(F)c1)c1ccc(NS(C)(=O)=O)c(CO)c1 [Example 36, 2-[4-tert-Butyl-3-fluorophenyl]-N-((1R)-1-{3-(hydroxymethyl)-4-[(methylsulfonyl)amino]phenyl}ethyl)cyclopropanecarboxamide] |
| – | 1150 | – | C[C@@H](NC(=O)C1CC1c1ccc(C(C)(C)C)nc1)c1ccc(NS(C)(=O)=O)c(F)c1 (stereo partly drawn) [Example 52, 2-[6-tert-Butylpyridin-3-yl]-N-((1R)-1-{3-fluoro-4-[(methylsulfonyl)amino]phenyl}ethyl)cyclopropanecarboxamide] |
| – | 1040 | – | Cc1cc([C@@H](C)NC(=O)C2CC2c2ccc(C(C)(C)C)cc2-c2ccncc2)ccc1NS(C)(=O)=O (stereo partly drawn) [Example 65, 2-[4-tert-Butyl-2-pyridin-4-ylphenyl]-N-((1R)-1-{3-methyl-4-[(methylsulfonyl)amino]phenyl}ethyl)cyclopropanecarboxamide] |
| – | < 3 | – | Cc1cc([C@@H](C)NC(=O)C2CC2(C)c2cc(F)c(C(C)(C)C)c(F)c2)c(F)cc1NS(C)(=O)=O (stereo partly drawn) [Example 78, 2-(4-tert-Butyl-3,5-difluorophenyl)-N-((1R)-1-{2-fluoro-5-methyl-4-[(methylsulfonyl)amino]phenyl}ethyl)-2-methylcyclopropanecarboxamide] |
| – | 52.7 | – | COCC(C)(C)c1ccc(C2(C)CC2C(=O)N[C@H](C)c2ccc(NS(C)(=O)=O)c(C)c2)cc1F (stereo partly drawn) [Example 85, 2-{4-[1,1-Dimethyl-2-(methyloxy)ethyl]-3-fluorophenyl}-2-methyl-N-((1R)-1-{3-methyl-4-[(methylsulfonyl)amino]phenyl}ethyl)cyclopropanecarboxamide] |
| – | 4.8 | – | C[C@@H](NC(=O)[C@H]1C[C@]1(C)c1ccc(C(F)(F)F)cc1)c1ccc(NS(C)(=O)=O)c(CCO)c1 [Example 86, (1S,2S)-N-((1R)-1-{3-(2-Hydroxyethyl)-4-[(methylsulfonyl)amino]phenyl}ethyl)-2-methyl-2-[4-(trifluoromethyl)phenyl]cyclopropanecarboxamide] |
| – | 19.9 | – | CCc1cc([C@@H](CC)NC(=O)[C@H]2C[C@]2(C)c2ccc(C(F)(F)F)cc2)ccc1NS(C)(=O)=O [Example 87, (1S,2S)-N-((1R)-1-{3-ethyl-4-[(methylsulfonyl)amino]phenyl}propyl)-2-methyl-2-[4-(trifluoromethyl)phenyl]cyclopropanecarboxamide] |
| – | < 3 | – | CCC1(c2ccc(C(F)(F)F)cc2)CC1C(=O)N[C@H](C)c1ccc(NS(C)(=O)=O)c(C)c1 (stereo partly drawn) [Example 88, 2-Ethyl-N-((1R)-1-{3-methyl-4-[(methylsulfonyl)amino]phenyl}ethyl)-2-[4-(trifluoromethyl)phenyl]cyclopropanecarboxamide] |
| – | < 3 | – | CCC1(c2ccc(C(F)(F)F)cc2)CC1C(=O)N[C@H](C)c1ccc(NS(C)(=O)=O)c(F)c1 (stereo partly drawn) [Example 89, 2-Ethyl-N-((1R)-1-{3-fluoro-4-[(methylsulfonyl)amino]phenyl}ethyl)-2-[4-(trifluoromethyl)phenyl]cyclopropanecarboxamide] |
| – | 86.3 | – | CC[C@@H](NC(=O)[C@H]1C[C@]1(C)c1cc(F)c(C(C)(C)C)c(F)c1)c1ccc(NS(C)(=O)=O)cc1 [Example 90, 2-(4-tert-Butyl-3,5-difluorophenyl)-2-methyl-N-((1R)-1-{4-[(methylsulfonyl)amino]phenyl}propyl)cyclopropanecarboxamide] |
| – | < 3 | – | CC[C@@H](NC(=O)[C@H]1C[C@]1(C)c1cc(F)c(C(C)(C)C)c(F)c1)c1ccc(NS(C)(=O)=O)c(C)c1 [Example 91, 2-(4-tert-butyl-3,5-difluorophenyl)-2-methyl-N-((1R)-1-{3-methyl-4-[(methylsulfonyl)amino]phenyl}propyl)cyclopropanecarboxamide] |
